From publication PMC12668304, “A Triple Threat Against Ovarian Cancer: Os(II)‐Pt(IV)‐Ceritinib Conjugates for Photodynamic Therapy, Chemotherapy, and Immunogenic Cell Death Induction” (Angewandte Chemie (International Ed. in English), 2025)

How the values were obtained:
[1] = tested on: calreticulin (CRT) exposure on MCA205 cells; assay: Externalisation of calreticulin (confocal microscopy, anti-CRT antibody); assay type: cell-based, mouse; conditions: positive control, light condition not stated
Description: Surface exposure of CRT was measured via confocal fluorescence microscopy after staining with an anti‐CRT antibody (ab2907). […] The surface exposure in the dark might be due to the oxaliplatin, a bona fide ICD inducer. Specifically, CRT expression increased by 67% upon irradiation and 63% in the dark, compared with non‐treated cells.
Figure 8 Translocation and changes in calreticulin (CRT) exposure on MCA205 cells determined by confocal fluorescence microscopy after 4 h treatment under dark (−L) and light (+L) (740 nm, 1 h) conditions, and an additional 16 h of incubation. DAPI: Nuclear fluorescence dye. Scale bar: 20 µm.
The localisation of the different parts of the studied complexes was determined by measuring the Os and Pt content inside A2780 cells via ICP-MS. […] After this time, the cells were trypsinized and counted. […] In parallel, the content of Os and Pt was determined in a total cell extraction (2·10 6 cells). […] The Os and Pt content was determined using an ICP -MS apparatus and comparing the results with the Os and Pt calibration standards.
A2780 cells were seeded in a 12-well plate to obtain a 90 –100% confluency. […] The cells were monitored by imaging over the following time intervals: 0, 6, 24, 32, and 48 h. […]
Extracellular ATP released from treated MCA205 and A2780 cells was detected by the luminescent ATP assay kit (ab113849). […]

A2780 MCTSs = assay: Growth kinetics (diameter) of spheroids; assay type: cell-based, human; conditions: 0.5 µM, irradiated 1 h at 740 nm, after 72 h
Description: A2780 spheroids (ca. 500 µm in diameter) were treated with increasing concentrations of the compounds and after 24 h of incubation, the medium was replaced with fresh medium, and the cells were either kept in the dark or irradiated for 1 h at 740 nm. Images of the spheroids were taken every 24 h for 3 days.
Figure 4 Changes in the growth kinetics of A2780 MCTSs treated with complex Os‐Pt‐Cer, Os, ceritinib, oxaliplatin, and cisplatin at 0.5 and 5 µM for irradiated and dark groups, respectively, and non‐treated as control. Images were collected on 0, 4, 24, and 72 h after the creation of the groups. Scale bar: 1000 µm.
4 h of incubation, the conversion of resazurin into resorufin was determined upon excitation at 540 nm and measurement of its emission at 590 nm using a Cytation 5 Imaging Reader from BioTek. The obtained data was analysed with the GraphPad Prism software
MCTS were cultured using ultra-low attachment 96 wells plates from Corning (Fisher Scientific 15329740). A2780 cells were seeded at a density of 1,500 cells per well in 100 μL of RPMI. Within 2-3 days, MCTSs have approximately 500 μm of diameter. The formation as well as integrity and diameter of the MCTSs were monitored by microscopy.
(Photo-)cytotoxicity on 3D multicellular tumor spheroids (MCTS) […]
Intracellular distribution by confocal fluorescence microscopy […]
Images were analysed with LAS X Flim FCS software. […]

O=C1[O][Pt]2([NH][C@@H]3CCCC[C@H]3[NH]2)[O]C1=O [Oxaliplatin]
CRT increase [1]: 21%
change of MCTS diameter (A2780 MCTSs): increased with time

Cc1cc(Nc2ncc(Cl)c(Nc3ccccc3S(=O)(=O)C(C)C)n2)c(OC(C)C)cc1C1CCNCC1 [Ceritinib]
change of MCTS diameter (A2780 MCTSs): increased with time
